Results: patent EP0376166A1, “Condensed quinoline system compound and process of preparation thereof” (MECT CORPORATION, priority 1988, dated 1990)
Values after ≈ are worked out from the molar mass of the structure shown.

Tests used:
[1] = tested on: KB Cell; test: Inhibition of multiplication (growth) of KB cells, in vitro; type: cell-based, human; details: Homo sapiens, 72 h, concentration for 50% growth inhibition vs control, compound added Day 1, cells counted Day 4, read-out: Conc.(ED50)
Protocol: KB cells, carcinomatous cell tumors, were transferred to in vitro floatation incubator systems, and added respectively with compounds of Examples 1 to 33. The results of cultivation added with these compounds were compared with the results of the control which was not added with any compound.
Cell used: KB Cell (Originating from human mouth epidermal cancer) Culture medium: Eagles minimal essential medium (MEM) supplemented with 10% calf serum Cultivation: 37°C carbon dioxide gas incubator (5% CO₂)
Day 0: KB cells were diluted in the culture medium to adjust the KB cell density to 2 x 10⁴/ml. Three ml of the cell suspension was inoculated in each of 60 mm plastic dishes. Two dishes per standard dosage were used. Day 1: Test compound was added to the medium so that the final concentrations were set to 100, 30, 10, 3 and 1 µg/ml. Day 4: Cells were scraped off from the dish using trypsin, and the cell number was countered using a Corter counter.
In generally accordance with the stipulations set forth by the National Cancer Institute (NCI), U.S.A., the concentration of compound necessary for exerting 50% growth inhibition (ED₅₀) compared to the control was determined. A compound was judged as effective when ED₅₀ was less than 4 µg/ml.

[2] = tested on: P-388; test: Prolongation of life span in P-388 implanted mice; type: in vivo, CDF mouse; details: for response vs control in vivo at 12.5 mg/kg / response vs control in vivo at 25 mg/kg / response vs control in vivo at 50 mg/kg / response vs control in vivo at 100 mg/kg / response vs control in vivo at 200 mg/kg / response vs control in vivo at 400 mg/kg: P388, ip, T/C %, Day 1 and Day 5, P-388 10⁶ cells/mouse i.p., read-out: Ratio of Life Prolongation (%); for response vs control in vivo at 50 mg/kg: dosage 50 mg/kg; for cure: cured mice per group of 6
Protocol: Animal used: CDF mouse (6 mice/group) Tumor: P-388 Number of implanted cells: 10⁶ cells/mouse Implanted site: i.p. Day of administration: Day 1 and Day 5 Dosage: LD₅₀ or 400 mg/kg/day at the maximum

SMILES	IC50 [1]	response vs control in vivo at 12.5 mg/kg ([2]; dosage 12.5 mg/kg)	response vs control in vivo at 25 mg/kg ([2]; dosage 25 mg/kg)	response vs control in vivo at 50 mg/kg [2]	cure ([2]; dosage 12.5 mg/kg)	cure ([2]; dosage 25 mg/kg)	response vs control in vivo at 100 mg/kg ([2]; dosage 100 mg/kg)	response vs control in vivo at 200 mg/kg ([2]; dosage 200 mg/kg)	cure ([2]; dosage 200 mg/kg)	response vs control in vivo at 400 mg/kg ([2]; dosage 400 mg/kg)	cure ([2]; dosage 100 mg/kg)	cure ([2]; dosage 400 mg/kg)
COc1cc(NS(C)(=O)=O)ccc1Nc1c2ccccc2nc2c1[nH]c1ccc(NC3OC(COC(C)=O)C(OC(C)=O)C(OC(C)=O)C3OC(C)=O)cc12 (centres unmarked) [Compound 23, N-{4-[(7-(2,3,4,6-tetra-O-acetylglycosyl-1-amino)-10H-indolo[3,2-b]quinoline-11-yl)amino]-3-methoxyphenyl} methanesulfonamide]	< 0.3 µg/mL	300%	148%	58%	2/6	1/6						
COc1cc(NS(C)(=O)=O)ccc1Nc1c2ccccc2nc2c1[nH]c1ccc(NC3OC(CO)C(O)C(O)C3O)cc12 (centres unmarked) [Compound 24, N-{4-[(7-(glycosyl-1-amino)-10H-indolo[3,2-b]quinoline-11-yl)amino]-3-methoxyphenyl} methanesulfonamide]	< 0.3 µg/mL	213%	145%	90%	2/6							
COc1cc(NS(C)(=O)=O)ccc1Nc1c2ccccc2nc2c1[nH]c1ccc(NC(C)=O)cc12 [Compound 25]	< 0.3 µg/mL	135%	174%									
COc1cc(NS(C)(=O)=O)ccc1Nc1c2ccccc2nc2c1[nH]c1ccc(NS(C)(=O)=O)cc12 [Compound 26, 2-methanesulfonamide-6-(4-methanesulfonamide-2-methoxyanilino)indolo[3,2-b]quinoline]	< 0.3 µg/mL	126%	111%									
COc1cc(NS(C)(=O)=O)ccc1Nc1c2cccc(C)c2nc2c1oc1ccccc12 [Compound 27, 6-(4-methanesulfonamide-2-methoxyanilino)-10-methylbenzofurano[3,2-b]quinoline]	0.38 µg/mL (≈ 0.849 µM)						230%	250%	1/6			
COc1cc(NS(C)(=O)=O)ccc1Nc1c2cccc(C)c2nc2c1oc1cccc(C)c12 [Compound 28, 6-(4-methanesulfonamide-2-methoxyanilino)-1,10-dimethylbenzofurano[3,2-b]quinoline]	< 0.3 µg/mL			204%			269%					
COc1cc(NS(C)(=O)=O)ccc1Nc1c2cccc(C)c2nc2c1oc1cc(C)ccc12 [Compound 29, 6-(4-methanesulfonamide-2-methoxyanilino)-3,10-dimethylbenzofurano[3,2-b]quinoline]	< 0.3 µg/mL						204%	269%	1/6	76%	1/6	
COc1cc(NS(C)(=O)=O)ccc1Nc1c2ccccc2nc2c1oc1cccc(C)c12 [Compound 30, 6-(4-methanesulfonamide-2-methoxyanilino)-1-methylbenzofurano[3,2-b]quinoline]	1.5 µg/mL (≈ 3.35 µM)						105%	108%		151%		
COc1cc(NS(C)(=O)=O)ccc1Nc1c2ccccc2nc2c1oc1cc(C)ccc12 [Compound 31, 6-(4-methanesulfonamide-2-methoxyanilino)-3-methylbenzofurano[3,2-b]quinoline]	< 0.3 µg/mL						147%	175%	1/6	219%		1/6
COc1cc(NS(C)(=O)=O)ccc1Nc1c2cccc(C)c2nc2c1sc1ccccc12 [Compound 32, 6-(4-methanesulfonamide-2-methoxyanilino)-10-methylbenzothieno[3,2-b]quinoline]	1.4 µg/mL (≈ 3.02 µM)						137%	167%		228%		
COc1cc(NS(C)(=O)=O)ccc1Nc1c2ccccc2nc2c1sc1cccc(C)c12 [Compound 33, 6-(4-methanesulfonamide-2-methoxyanilino)-1-methylbenzothieno[3,2-b]quinoline]	< 0.3 µg/mL						191%	255%	1/6	280%		1/6
